Biological target: T1, human PTP-1B (Homo sapiens, UniProt P18031)
T1 construct: The fusion protein, which lacks the carboxyl terminus 35 amino acid residues of PTP-1B; made in house; host or cells: Escherichia coli (pGEX system)
T1 sequence (P18031 1-400 limits assumed): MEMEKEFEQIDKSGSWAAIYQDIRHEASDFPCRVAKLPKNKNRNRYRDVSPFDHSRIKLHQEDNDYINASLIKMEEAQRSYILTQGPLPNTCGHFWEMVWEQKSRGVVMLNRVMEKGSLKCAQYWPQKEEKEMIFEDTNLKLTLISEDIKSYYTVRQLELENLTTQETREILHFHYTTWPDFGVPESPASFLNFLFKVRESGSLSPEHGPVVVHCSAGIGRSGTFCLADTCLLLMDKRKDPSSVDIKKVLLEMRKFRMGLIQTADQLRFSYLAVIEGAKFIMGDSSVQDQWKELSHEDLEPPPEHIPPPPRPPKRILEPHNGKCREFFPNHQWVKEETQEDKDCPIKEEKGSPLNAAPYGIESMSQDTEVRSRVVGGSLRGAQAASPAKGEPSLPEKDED
Test: Assay for PTP-1B phosphatase activity (malachite green, phosphorylated insulin receptor peptide)
Assay type: biochemical
Details: truncated human PTP-1B GST fusion protein, phosphorylated kinase domain of insulin receptor-1 as substrate, absorbance at 650 nm, read-out: IC50 of inhibition of PTP-1B phosphatase activity
Description: PTP-1B phosphatase activity was measured as its ability to dephosphorylate a phosphorylated insulin receptor. In particular, a phosphorylated peptide derived from insulin receptor was used for the assay. The dephosphorylation reaction was monitored using a malachite green assay (Lanzetta et al., Anal Biochem. 1979, 100: 95-7), which measures the release of inorganic phosphate from the activated insulin receptor or the phosphorylated peptide derived from insulin receptor. A PTP-1B inhibitor decreases the yield of inorganic phosphate when it is added to the assay.
A substantially purified, soluble, truncated human PTP-1B GST fusion protein was used as the source of PTP-1B enzyme. […]
PTP-1B GST fusion protein (10 ng in 48 μl of assay buffer) was mixed with the phosphorylated kinase domain of insulin receptor-1 (70 μM in 201 μl of assay buffer) and the test compound (at desired concentration in 2 μl DMSO). […] After additional 30 minutes incubation at room temperature, the amount of inorganic phosphate released from the phosphorylated kinase domain of insulin receptor-1 in the reaction mixture was measured by the absorbance at 650 nm. […]

Question: With `Cc1ccc(CC/N=C2\N/C(=N\CCc3ccc(C)cc3)c3cnccc32)cc1` [Formula II, 1,3-Bis-(2-p-tolyl-ethylimino)-2,3-dihydro-1H-pyrrolo[3,4-c]pyridine] as the compound, how does the IC50 read?
Answer: The IC50 was 910 nM.

From patent US20050159442A1, “Protein tyrosine phosphatase 1B (PTP-1B) inhibitors and methods of using the same” (priority 2003, published 2005)
